How the values were obtained:
[1] = target: Protein-tyrosine kinase 6 (Homo sapiens) (UniProt Q13882); assay: Inhibition of BRK (unknown origin) assessed as residual activity at 1000 nM by KINOMEscan analysis relative to control
[2] = target: Cyclin-dependent kinase 4/cyclin D1 (Homo sapiens) (UniProt P11802+P24385); assay: Inhibition of CDK4-cyclin D1 (unknown origin) assessed as residual activity at 1000 nM by KINOMEscan analysis relative to control; assay type: protein-complex assay
[3] = target: Cyclin-dependent kinase 7 (Homo sapiens) (UniProt P50613); assay: Inhibition of CDK7 (unknown origin) assessed as residual activity at 1000 nM by KINOMEscan analysis relative to control
[4] = target: Focal adhesion kinase 1 (Homo sapiens) (UniProt Q05397); assay: Inhibition of FAK (unknown origin) assessed as residual activity at 1000 nM by KINOMEscan analysis relative to control
[5] = target: T1, Serine/threonine-protein kinase LATS1 (Homo sapiens) (UniProt O95835); assay: Inhibition of LATS1 (unknown origin) assessed as residual activity at 1000 nM by KINOMEscan analysis relative to control
T1 sequence (whole entry): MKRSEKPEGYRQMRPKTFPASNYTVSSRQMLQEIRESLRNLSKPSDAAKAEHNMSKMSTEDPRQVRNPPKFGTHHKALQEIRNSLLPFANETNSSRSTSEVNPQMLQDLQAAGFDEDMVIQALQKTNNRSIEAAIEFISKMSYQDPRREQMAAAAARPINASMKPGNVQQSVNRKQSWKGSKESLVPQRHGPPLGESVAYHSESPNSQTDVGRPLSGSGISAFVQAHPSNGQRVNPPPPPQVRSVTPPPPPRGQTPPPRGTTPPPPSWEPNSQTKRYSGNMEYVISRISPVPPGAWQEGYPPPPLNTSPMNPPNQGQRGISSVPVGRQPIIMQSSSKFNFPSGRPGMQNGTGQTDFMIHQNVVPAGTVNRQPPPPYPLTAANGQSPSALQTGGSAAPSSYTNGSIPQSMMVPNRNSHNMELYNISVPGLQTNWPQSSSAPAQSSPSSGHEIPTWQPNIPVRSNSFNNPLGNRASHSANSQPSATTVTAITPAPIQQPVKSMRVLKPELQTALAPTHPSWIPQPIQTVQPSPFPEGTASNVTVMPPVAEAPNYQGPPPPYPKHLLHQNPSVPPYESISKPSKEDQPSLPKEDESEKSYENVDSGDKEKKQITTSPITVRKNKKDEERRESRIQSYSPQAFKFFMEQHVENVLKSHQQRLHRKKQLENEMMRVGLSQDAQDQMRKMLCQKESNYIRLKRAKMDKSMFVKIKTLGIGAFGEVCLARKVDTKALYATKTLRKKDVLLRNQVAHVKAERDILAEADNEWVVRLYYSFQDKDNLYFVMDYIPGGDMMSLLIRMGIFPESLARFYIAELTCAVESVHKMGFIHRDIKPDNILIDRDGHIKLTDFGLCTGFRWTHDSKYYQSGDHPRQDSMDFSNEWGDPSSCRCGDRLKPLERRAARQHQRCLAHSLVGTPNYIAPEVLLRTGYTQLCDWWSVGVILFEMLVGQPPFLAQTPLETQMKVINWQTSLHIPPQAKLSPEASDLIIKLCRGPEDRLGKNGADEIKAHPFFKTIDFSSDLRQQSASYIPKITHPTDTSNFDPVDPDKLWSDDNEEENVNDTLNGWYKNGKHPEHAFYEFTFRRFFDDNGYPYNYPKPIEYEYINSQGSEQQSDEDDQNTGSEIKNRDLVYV

[6] = target: T2, Serine/threonine-protein kinase Nek2 (Homo sapiens) (UniProt P51955); assay: Inhibition of NEK2 (unknown origin) assessed as residual activity at 1000 nM by KINOMEscan analysis relative to control
T2 sequence (whole entry): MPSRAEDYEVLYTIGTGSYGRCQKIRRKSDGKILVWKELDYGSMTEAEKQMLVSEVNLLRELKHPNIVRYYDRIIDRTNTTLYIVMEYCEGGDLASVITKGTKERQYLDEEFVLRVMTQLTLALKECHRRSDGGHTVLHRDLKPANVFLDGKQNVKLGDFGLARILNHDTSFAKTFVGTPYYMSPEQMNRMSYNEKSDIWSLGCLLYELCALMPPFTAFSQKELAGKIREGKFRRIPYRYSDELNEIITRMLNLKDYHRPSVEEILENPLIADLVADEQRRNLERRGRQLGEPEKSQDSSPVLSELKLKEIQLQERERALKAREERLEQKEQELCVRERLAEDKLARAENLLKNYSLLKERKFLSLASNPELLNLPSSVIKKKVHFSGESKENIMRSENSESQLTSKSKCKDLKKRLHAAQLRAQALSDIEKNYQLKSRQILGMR

[7] = target: T3, 3-phosphoinositide-dependent protein kinase 1 (Homo sapiens) (UniProt O15530); assay: Inhibition of PDPK1 (unknown origin) assessed as residual activity at 1000 nM by KINOMEscan analysis relative to control
T3 sequence (whole entry): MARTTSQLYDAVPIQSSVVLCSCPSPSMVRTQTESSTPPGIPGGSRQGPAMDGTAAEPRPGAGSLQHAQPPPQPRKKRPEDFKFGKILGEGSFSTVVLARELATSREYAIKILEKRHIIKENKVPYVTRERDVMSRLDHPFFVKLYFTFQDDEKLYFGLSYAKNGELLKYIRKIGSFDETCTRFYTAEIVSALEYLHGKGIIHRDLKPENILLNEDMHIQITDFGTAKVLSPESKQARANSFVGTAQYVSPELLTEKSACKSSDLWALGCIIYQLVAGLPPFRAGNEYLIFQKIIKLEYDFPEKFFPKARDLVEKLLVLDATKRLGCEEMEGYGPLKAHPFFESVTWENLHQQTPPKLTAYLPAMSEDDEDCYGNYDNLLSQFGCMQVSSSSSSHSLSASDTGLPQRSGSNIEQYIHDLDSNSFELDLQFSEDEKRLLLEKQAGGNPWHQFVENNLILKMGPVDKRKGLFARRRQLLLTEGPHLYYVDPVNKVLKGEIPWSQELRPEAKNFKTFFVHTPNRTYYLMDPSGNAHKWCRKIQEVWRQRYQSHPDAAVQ

[8] = target: Phosphatidylinositol 4,5-bisphosphate 3-kinase catalytic subunit beta isoform (Homo sapiens) (UniProt P42338); assay: Inhibition of PIK3CB (unknown origin) assessed as residual activity at 1000 nM by KINOMEscan analysis relative to control
[9] = target: Serine/threonine-protein kinase PRP4 homolog (Homo sapiens) (UniProt Q13523); assay: Inhibition of PRP4 (unknown origin) assessed as residual activity at 1000 nM by KINOMEscan analysis relative to control
[10] = target: Wee1-like protein kinase 2 (Homo sapiens) (UniProt P0C1S8); assay: Inhibition of WEE2 (unknown origin) assessed as residual activity at 1000 nM by KINOMEscan analysis relative to control
Chain of Wee1-like protein kinase 2 (Homo sapiens) (P0C1S8 whole entry, looked up): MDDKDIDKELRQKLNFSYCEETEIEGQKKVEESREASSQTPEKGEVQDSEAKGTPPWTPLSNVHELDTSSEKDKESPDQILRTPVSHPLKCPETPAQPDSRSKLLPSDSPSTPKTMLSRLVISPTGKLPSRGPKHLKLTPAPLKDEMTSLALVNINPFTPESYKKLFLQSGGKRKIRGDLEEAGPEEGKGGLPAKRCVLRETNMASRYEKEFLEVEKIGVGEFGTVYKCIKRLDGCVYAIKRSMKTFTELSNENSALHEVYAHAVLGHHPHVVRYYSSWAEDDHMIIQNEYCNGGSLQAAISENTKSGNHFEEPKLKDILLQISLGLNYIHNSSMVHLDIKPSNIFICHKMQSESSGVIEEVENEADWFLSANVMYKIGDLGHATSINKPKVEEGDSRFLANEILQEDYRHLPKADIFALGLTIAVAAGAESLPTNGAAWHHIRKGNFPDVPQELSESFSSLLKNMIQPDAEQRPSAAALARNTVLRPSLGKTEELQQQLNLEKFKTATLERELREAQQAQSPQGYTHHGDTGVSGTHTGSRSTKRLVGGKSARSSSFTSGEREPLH

Chain of Phosphatidylinositol 4,5-bisphosphate 3-kinase catalytic subunit beta isoform (Homo sapiens) (P42338 whole entry, looked up, canonical isoform): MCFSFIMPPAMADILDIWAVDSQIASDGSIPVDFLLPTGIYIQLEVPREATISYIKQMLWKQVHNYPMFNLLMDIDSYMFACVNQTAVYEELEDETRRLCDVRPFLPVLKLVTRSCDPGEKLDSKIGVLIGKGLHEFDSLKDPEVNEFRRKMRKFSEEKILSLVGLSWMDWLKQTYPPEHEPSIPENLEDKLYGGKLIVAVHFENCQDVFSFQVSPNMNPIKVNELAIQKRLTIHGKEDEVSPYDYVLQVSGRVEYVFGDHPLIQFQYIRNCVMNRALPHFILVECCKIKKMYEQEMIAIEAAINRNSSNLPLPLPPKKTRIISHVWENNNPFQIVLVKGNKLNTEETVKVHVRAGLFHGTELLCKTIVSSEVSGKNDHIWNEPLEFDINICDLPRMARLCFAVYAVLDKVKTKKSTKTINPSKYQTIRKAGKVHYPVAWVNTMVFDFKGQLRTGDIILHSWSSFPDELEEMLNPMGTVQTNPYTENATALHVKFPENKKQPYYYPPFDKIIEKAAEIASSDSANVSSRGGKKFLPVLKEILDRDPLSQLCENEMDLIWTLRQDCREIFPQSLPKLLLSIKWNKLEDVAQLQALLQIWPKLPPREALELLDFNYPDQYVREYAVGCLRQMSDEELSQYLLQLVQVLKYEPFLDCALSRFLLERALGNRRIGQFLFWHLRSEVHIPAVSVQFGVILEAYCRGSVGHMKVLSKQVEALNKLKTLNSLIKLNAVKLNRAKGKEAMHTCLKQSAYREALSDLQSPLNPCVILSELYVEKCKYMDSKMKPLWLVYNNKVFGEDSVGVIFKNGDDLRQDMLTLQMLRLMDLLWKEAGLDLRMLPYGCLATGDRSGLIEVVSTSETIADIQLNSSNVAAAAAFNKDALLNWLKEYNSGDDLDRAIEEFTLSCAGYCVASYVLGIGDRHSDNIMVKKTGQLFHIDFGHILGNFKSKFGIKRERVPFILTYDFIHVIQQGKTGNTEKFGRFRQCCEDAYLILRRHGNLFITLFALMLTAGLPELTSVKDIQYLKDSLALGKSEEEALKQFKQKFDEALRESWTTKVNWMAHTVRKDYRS
Chain of Focal adhesion kinase 1 (Homo sapiens) (Q05397 2-1052 limits assumed): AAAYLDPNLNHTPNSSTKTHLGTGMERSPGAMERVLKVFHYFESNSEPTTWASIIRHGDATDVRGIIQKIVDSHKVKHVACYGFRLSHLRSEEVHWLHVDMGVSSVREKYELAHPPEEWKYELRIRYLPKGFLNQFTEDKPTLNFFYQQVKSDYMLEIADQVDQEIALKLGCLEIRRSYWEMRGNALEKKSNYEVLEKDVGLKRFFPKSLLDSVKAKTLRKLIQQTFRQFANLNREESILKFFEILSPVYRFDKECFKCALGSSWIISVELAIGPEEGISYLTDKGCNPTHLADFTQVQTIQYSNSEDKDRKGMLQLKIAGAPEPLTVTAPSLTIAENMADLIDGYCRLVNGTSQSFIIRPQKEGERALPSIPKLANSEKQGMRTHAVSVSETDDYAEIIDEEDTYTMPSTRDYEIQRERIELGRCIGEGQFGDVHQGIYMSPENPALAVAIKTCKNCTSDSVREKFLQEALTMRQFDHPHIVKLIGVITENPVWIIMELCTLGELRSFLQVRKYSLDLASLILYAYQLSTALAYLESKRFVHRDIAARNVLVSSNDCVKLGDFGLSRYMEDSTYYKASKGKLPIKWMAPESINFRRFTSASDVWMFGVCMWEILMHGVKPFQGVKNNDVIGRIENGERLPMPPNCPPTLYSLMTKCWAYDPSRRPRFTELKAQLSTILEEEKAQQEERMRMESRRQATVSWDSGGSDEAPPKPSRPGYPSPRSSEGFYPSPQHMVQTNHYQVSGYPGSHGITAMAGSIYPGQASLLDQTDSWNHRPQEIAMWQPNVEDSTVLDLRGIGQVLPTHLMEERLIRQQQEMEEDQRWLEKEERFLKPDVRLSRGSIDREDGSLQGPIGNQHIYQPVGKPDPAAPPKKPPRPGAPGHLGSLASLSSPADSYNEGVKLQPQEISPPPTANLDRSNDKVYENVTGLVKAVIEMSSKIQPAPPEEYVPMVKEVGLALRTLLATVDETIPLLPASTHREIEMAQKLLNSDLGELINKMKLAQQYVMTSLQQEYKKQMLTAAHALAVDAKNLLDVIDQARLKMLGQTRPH
Chain of Protein-tyrosine kinase 6 (Homo sapiens) (Q13882 whole entry, looked up): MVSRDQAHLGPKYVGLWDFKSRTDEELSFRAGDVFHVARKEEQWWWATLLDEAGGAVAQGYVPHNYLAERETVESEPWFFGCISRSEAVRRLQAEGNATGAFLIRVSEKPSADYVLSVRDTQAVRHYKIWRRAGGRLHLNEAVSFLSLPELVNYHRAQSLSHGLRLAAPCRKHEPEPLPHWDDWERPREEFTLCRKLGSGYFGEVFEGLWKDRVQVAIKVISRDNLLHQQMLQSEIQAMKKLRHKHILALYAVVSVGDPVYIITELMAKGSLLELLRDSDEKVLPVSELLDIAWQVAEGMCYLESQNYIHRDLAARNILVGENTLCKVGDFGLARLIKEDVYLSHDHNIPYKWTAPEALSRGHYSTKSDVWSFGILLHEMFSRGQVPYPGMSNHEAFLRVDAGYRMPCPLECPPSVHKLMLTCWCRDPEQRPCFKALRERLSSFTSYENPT
Chain of Serine/threonine-protein kinase PRP4 homolog (Homo sapiens) (Q13523 whole entry): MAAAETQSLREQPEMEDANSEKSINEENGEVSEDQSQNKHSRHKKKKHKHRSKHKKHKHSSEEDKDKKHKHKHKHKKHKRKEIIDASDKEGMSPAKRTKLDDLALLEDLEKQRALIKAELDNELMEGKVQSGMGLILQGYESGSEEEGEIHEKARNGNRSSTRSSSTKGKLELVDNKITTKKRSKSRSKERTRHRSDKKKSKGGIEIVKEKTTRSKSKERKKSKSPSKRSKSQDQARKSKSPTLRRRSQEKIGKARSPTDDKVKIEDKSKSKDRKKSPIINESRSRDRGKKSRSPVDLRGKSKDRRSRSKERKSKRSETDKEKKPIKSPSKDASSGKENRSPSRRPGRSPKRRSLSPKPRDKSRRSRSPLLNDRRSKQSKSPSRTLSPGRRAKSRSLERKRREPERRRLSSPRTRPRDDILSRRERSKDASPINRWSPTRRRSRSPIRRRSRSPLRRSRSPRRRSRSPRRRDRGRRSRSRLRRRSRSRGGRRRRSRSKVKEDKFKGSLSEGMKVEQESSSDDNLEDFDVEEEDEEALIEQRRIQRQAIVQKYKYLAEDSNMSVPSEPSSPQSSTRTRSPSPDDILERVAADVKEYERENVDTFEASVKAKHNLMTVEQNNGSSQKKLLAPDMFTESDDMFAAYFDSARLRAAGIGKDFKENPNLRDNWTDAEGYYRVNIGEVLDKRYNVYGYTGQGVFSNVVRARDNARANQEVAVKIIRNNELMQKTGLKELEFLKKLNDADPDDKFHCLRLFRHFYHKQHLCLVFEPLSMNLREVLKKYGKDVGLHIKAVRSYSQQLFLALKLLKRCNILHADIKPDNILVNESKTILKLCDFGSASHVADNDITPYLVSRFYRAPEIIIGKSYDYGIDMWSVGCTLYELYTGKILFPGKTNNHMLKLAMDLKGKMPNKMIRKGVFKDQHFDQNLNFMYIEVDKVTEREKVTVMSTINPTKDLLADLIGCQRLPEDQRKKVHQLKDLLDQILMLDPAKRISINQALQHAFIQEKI
Chain of Cyclin-dependent kinase 7 (Homo sapiens) (P50613 whole entry): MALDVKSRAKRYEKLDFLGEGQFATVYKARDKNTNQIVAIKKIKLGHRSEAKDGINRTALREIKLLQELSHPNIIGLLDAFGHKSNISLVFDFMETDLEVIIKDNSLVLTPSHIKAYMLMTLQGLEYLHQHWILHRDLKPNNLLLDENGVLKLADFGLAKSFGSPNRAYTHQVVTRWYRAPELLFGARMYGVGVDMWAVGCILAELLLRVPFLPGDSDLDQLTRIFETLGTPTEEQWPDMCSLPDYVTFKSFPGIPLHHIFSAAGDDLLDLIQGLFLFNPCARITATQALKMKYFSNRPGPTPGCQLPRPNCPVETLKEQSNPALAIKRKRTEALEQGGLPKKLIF

SMILES | Activity [1] [%] | Activity [2] [%] | Activity [3] [%] | Activity [4] [%] | Activity [5] [%] | Activity [6] [%] | Activity [7] [%] | Activity [8] [%] | Activity [9] [%] | Activity [10] [%]
COc1cc2nc(C)nc(N[C@H](C)c3cccc(-c4cn[nH]c4)c3)c2cc1OC | 57 | 100 | 92 | 95 | 98 | 89 | 97 | 89 | 94 | 65
COc1cc2ncnc(N[C@H](C)c3cccc4ccccc34)c2cc1OC | 100 | 98 | 87 | 100 | 100 | 98 | 88 | 13 | 95 | 100
